Source: patent publication US20260262643A1, “HERBICIDAL BENZOXAZINES” (FMC CORPORATION, priority 2022, published 2026)

Key:
ducksalad = assay: Test D flooded paddy test; assay type: in vivo, Heteranthera limosa; settings: 250 g ai/ha, applied to paddy water, visual rating after 13 to 14 days, scale 0 to 100 (0 no effect, 100 complete control)
Method in brief: (§1)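 Plants at the 2-leaf stage were grown in pots flooded to 3 cm, and compound was applied directly into the paddy water, with depth kept throughout. After 13–14 days in a greenhouse, injury was rated visually against untreated controls on a 0–100 scale (100 = complete control); a dash means not tested.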

galium = assay: Test C postemergence; assay type: in vivo, Galium aparine; settings: 10 days, 0 to 100 scale (0 no effect, 100 complete control)
Method in brief: (§2)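 Soil-applied (pre) and foliar (post, 1–2 leaf, 2–10 cm) sprays; surfactant-containing non-phytotoxic solvent vehicle; loam/sand substrate. Readout: visual % control at 10 d, greenhouse, versus untreated.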

ryegrass, Italian [1] = assay: Test C preemergence; assay type: in vivo, Lolium multiflorum
Method in brief: as §2

horseweed = assay: Test C postemergence; assay type: in vivo, Erigeron canadensis; settings: 10 days, 0 to 100 scale (0 no effect, 100 complete control)
Method in brief: as §2

soybean [2] = assay: Test C preemergence; assay type: in vivo, Glycine max
Method in brief: as §2

pigweed, palmer [3] = assay: Test C postemergence; assay type: in vivo, Amaranthus palmeri; settings: 10 days, 0 to 100 scale (0 no effect, 100 complete control)
Method in brief: as §2

blackgrass [4] = assay: Test C postemergence; assay type: in vivo, Alopecurus myosuroides; settings: 10 days, 0 to 100 scale (0 no effect, 100 complete control)
Method in brief: as §2

oat, wild [5] = assay: Test C preemergence; assay type: in vivo, Avena fatua
Method in brief: as §2

ragweed [6] = assay: Test C postemergence; assay type: in vivo, Ambrosia artemisiifolia; settings: 10 days, 0 to 100 scale (0 no effect, 100 complete control)
Method in brief: as §2

corn [7] = assay: Test C preemergence; assay type: in vivo, Zea mays
Method in brief: as §2

wheat [8] = assay: Test C postemergence; assay type: in vivo, Triticum aestivum; settings: 10 days, 0 to 100 scale (0 no effect, 100 complete control)
Method in brief: as §2

soybean [9] = assay: Test C postemergence; assay type: in vivo, Glycine max; settings: 10 days, 0 to 100 scale (0 no effect, 100 complete control)
Method in brief: as §2

kochia [10] = assay: Test C preemergence; assay type: in vivo, Bassia scoparia
Method in brief: as §2

oat, wild [11] = assay: Test C postemergence; assay type: in vivo, Avena fatua; settings: 10 days, 0 to 100 scale (0 no effect, 100 complete control)
Method in brief: as §2

barnyardgrass [12] = assay: Test D flooded paddy test; assay type: in vivo, Echinochloa crus-galli; settings: 250 g ai/ha, applied to paddy water, visual rating after 13 to 14 days, scale 0 to 100 (0 no effect, 100 complete control)
Method in brief: as §1

rice = assay: Test D flooded paddy test; assay type: in vivo, Oryza sativa; settings: 250 g ai/ha, applied to paddy water, visual rating after 13 to 14 days, scale 0 to 100 (0 no effect, 100 complete control)
Method in brief: as §1

foxtail, giant [13] = assay: Test C postemergence; assay type: in vivo, Setaria faberi; settings: 10 days, 0 to 100 scale (0 no effect, 100 complete control)
Method in brief: as §2

ragweed [14] = assay: Test C preemergence; assay type: in vivo, Ambrosia artemisiifolia
Method in brief: as §2

corn [15] = assay: Test C postemergence; assay type: in vivo, Zea mays; settings: 10 days, 0 to 100 scale (0 no effect, 100 complete control)
Method in brief: as §2

foxtail, giant [16] = assay: Test C preemergence; assay type: in vivo, Setaria faberi
Method in brief: as §2

blackgrass [17] = assay: Test C preemergence; assay type: in vivo, Alopecurus myosuroides
Method in brief: as §2

barnyardgrass [18] = assay: Test C preemergence; assay type: in vivo, Echinochloa crusgalli
Method in brief: as §2

barnyardgrass [19] = assay: Test C postemergence; assay type: in vivo, Echinochloa crusgalli; settings: 10 days, 0 to 100 scale (0 no effect, 100 complete control)
Method in brief: as §2

kochia [20] = assay: Test C postemergence; assay type: in vivo, Bassia scoparia; settings: 10 days, 0 to 100 scale (0 no effect, 100 complete control)
Method in brief: as §2

pigweed, palmer [21] = assay: Test C preemergence; assay type: in vivo, Amaranthus palmeri
Method in brief: as §2

wheat [22] = assay: Test C preemergence; assay type: in vivo, Triticum aestivum
Method in brief: as §2

sedge, umbrella = assay: Test D flooded paddy test; assay type: in vivo, Cyperus difformis; settings: 250 g ai/ha, applied to paddy water, visual rating after 13 to 14 days, scale 0 to 100 (0 no effect, 100 complete control)
Method in brief: as §1

ryegrass, Italian [23] = assay: Test C postemergence; assay type: in vivo, Lolium multiflorum; settings: 10 days, 0 to 100 scale (0 no effect, 100 complete control)
Method in brief: as §2

[24] = 500 g ai/ha, preemergence, 0 to 100 scale (0 no effect, 100 complete control)
[25] = Preemergence, 125 g ai/ha, 0 to 100 scale, 0 no effect, 100 complete control

CCc1ncn(-c2cc(C(=O)N3CC(C(F)(F)F)Oc4c(Cl)cccc43)ccn2)n1 (racemic) [Compound 334]
Plant response rating, Ducksalad (Flood) (ducksalad): 30
Plant response rating, Galium (galium; 500 g ai/ha, postemergence): 100
Plant response rating, Galium (galium; Postemergence, 125 g ai/ha): 100
Ryegrass, Italian plant response rating (ryegrass, Italian [1]; [24]): 90
Plant response rating, Ryegrass, Italian (ryegrass, Italian [1]; [25]): 70
Plant response rating, Horseweed (horseweed; 500 g ai/ha, postemergence): 40
Plant response rating, Horseweed (horseweed; Postemergence, 125 g ai/ha): 0
Soybean plant response rating (soybean [2]; [24]): 60
Plant response rating, Soybean (soybean [2]; [25]): 0
Plant response rating, Pigweed, Palmer (pigweed, palmer [3]; 500 g ai/ha, postemergence): 50
Plant response rating, Pigweed, Palmer (pigweed, palmer [3]; Postemergence, 125 g ai/ha): 30
Plant response rating, Blackgrass (blackgrass [4]; 500 g ai/ha, postemergence): 80
Plant response rating, Blackgrass (blackgrass [4]; Postemergence, 125 g ai/ha): 40
Oat, Wild plant response rating (oat, wild [5]; [24]): 30
Plant response rating, Oat, Wild (oat, wild [5]; [25]): 0
Plant response rating, Ragweed (ragweed [6]; 500 g ai/ha, postemergence): 60
Plant response rating, Ragweed (ragweed [6]; Postemergence, 125 g ai/ha): 0
Corn plant response rating (corn [7]; [24]): 50
Plant response rating, Corn (corn [7]; [25]): 0
Plant response rating, Wheat (wheat [8]; 500 g ai/ha, postemergence): 50
Plant response rating, Wheat (wheat [8]; Postemergence, 125 g ai/ha): 20
Plant response rating, Soybean (soybean [9]; 500 g ai/ha, postemergence): 100
Plant response rating, Soybean (soybean [9]; Postemergence, 125 g ai/ha): 100
Kochia plant response rating (kochia [10]; [24]): 80
Plant response rating, Kochia (kochia [10]; [25]): 40
Plant response rating, Oat, Wild (oat, wild [11]; 500 g ai/ha, postemergence): 40
Plant response rating, Oat, Wild (oat, wild [11]; Postemergence, 125 g ai/ha): 10
Plant response rating, Barnyardgrass (Flood) (barnyardgrass [12]): 10
Plant response rating, Rice (Flood) (rice): 0
Plant response rating, Foxtail, Giant (foxtail, giant [13]; 500 g ai/ha, postemergence): 90
Plant response rating, Foxtail, Giant (foxtail, giant [13]; Postemergence, 125 g ai/ha): 70
Ragweed plant response rating (ragweed [14]; [24]): 30
Plant response rating, Ragweed (ragweed [14]; [25]): 0
Plant response rating, Corn (corn [15]; 500 g ai/ha, postemergence): 90
Plant response rating, Corn (corn [15]; Postemergence, 125 g ai/ha): 40
Foxtail, Giant plant response rating (foxtail, giant [16]; [24]): 100
Plant response rating, Foxtail, Giant (foxtail, giant [16]; [25]): 90
Blackgrass plant response rating (blackgrass [17]; [24]): 90
Plant response rating, Blackgrass (blackgrass [17]; [25]): 80
Barnyardgrass plant response rating (barnyardgrass [18]; [24]): 100
Plant response rating, Barnyardgrass (barnyardgrass [18]; [25]): 60
Plant response rating, Barnyardgrass (barnyardgrass [19]; 500 g ai/ha, postemergence): 90
Plant response rating, Barnyardgrass (barnyardgrass [19]; Postemergence, 125 g ai/ha): 20
Plant response rating, Kochia (kochia [20]; 500 g ai/ha, postemergence): 80
Plant response rating, Kochia (kochia [20]; Postemergence, 125 g ai/ha): 80
Pigweed, Palmer plant response rating (pigweed, palmer [21]; [24]): 100
Plant response rating, Pigweed, Palmer (pigweed, palmer [21]; [25]): 90
Wheat plant response rating (wheat [22]; [24]): 20
Plant response rating, Wheat (wheat [22]; [25]): 0
Plant response rating, Sedge, Umbrella (Flood) (sedge, umbrella): 70
Plant response rating, Ryegrass, Italian (ryegrass, Italian [23]; 500 g ai/ha, postemergence): 70
Plant response rating, Ryegrass, Italian (ryegrass, Italian [23]; Postemergence, 125 g ai/ha): 50
